Data set [1] has as its system non-tumorigenic HEK-293 (embryonic kidney cells). Kind of data set: MTT cell survival assay, non-tumorigenic HEK-293 cells. The data set is classed as cell-based. The following applies: Homo sapiens, HEK293; MTT test; cells incubated at 37 °C for 48 h (Table 1 footnote); mean ± SEM, n = 3. On the procedure: (§1) Human cancer cell lines from bladder (T24), prostate (DU–145), breast (MCF–7) and non-tumor HEK-293 cells were obtained from the American Type Culture Collection (ATCC, Manassas, VA, USA). The cultures were maintained at a density of 1–2 × 10^5 cells/mL and the medium was changed at 48- and 72-h intervals. They were cultured in high-glucose Dulbecco’s modified Eagle medium (Gibco, Grand Island, NY, USA) supplemented with 10% fetal calf serum, penicillin (100 U/mL) and streptomycin (100 μg/mL). All cultures were kept at 37 °C in 95% air/5% CO2 at 100% humidity. Phosphate-buffered saline (PBS) was purchased from Gibco. Cells were incubated at the indicated times at 37 °C with or without compounds 1–14 at various concentrations.
(§2) The cytotoxicity of the compounds 1–14 was assessed by following the reduction of MTT (3-(4,5-Dimethylthiazol-2-yl)-2,5-diphenyltetrazolium bromide) to formazan blue. […] Doxorubicin was used as a standard chemotherapeutic agent (positive control). Cells were washed twice with warm PBS and further incubated with MTT (0.5 mg/mL) for 2 h at 37 °C. Blue formazan crystals were solubilized by adding 100 µL DMSO/well, and the optical density of colored solutions was subsequently read at 550 nm in a microplate reader Tecan infinite M200 Pro (Männedorf, Switzerland). The compounds 1–14 were dissolved in DMSO (stock solution at 100 mM) and further diluted to be evaluated at the following concentrations: 0 μM, 1 μM, 10 μM, 20 μM, 40 μM, 60 μM, 80 μM and 100 μM. Results are expressed as % of MTT reduction compared to untreated control conditions. The IC50 values were calculated using the GraphPad Prism 8.0.2 software (San Diego, CA, USA).
A general note: Formazan colour is commonly taken as a measure of viable cells.

Data set [2] has as its system DU-145, MCF-7 and T24 cancer cells. Kind of data set: Antiproliferative activity over DU-145, MCF-7 and T24 cancer cells. The following applies: summary of Table 1 (DU-145, MCF-7, T24). In kind it is cell-based, human. On the procedure: as §1
(§3) The cytotoxicity of the compounds 1–14 was assessed by following the reduction of MTT (3-(4,5-Dimethylthiazol-2-yl)-2,5-diphenyltetrazolium bromide) to formazan blue. Cells were seeded into 96-well plates at a density of 10,000 cells/well for 24 h and then they were further incubated for 24 h with or without the quinones. Doxorubicin was used as a standard chemotherapeutic agent (positive control). Cells were washed twice with warm PBS and further incubated with MTT (0.5 mg/mL) for 2 h at 37 °C. Blue formazan crystals were solubilized by adding 100 µL DMSO/well, and the optical density of colored solutions was subsequently read at 550 nm in a microplate reader Tecan infinite M200 Pro (Männedorf, Switzerland). The compounds 1–14 were dissolved in DMSO (stock solution at 100 mM) and further diluted to be evaluated at the following concentrations: 0 μM, 1 μM, 10 μM, 20 μM, 40 μM, 60 μM, 80 μM and 100 μM. Results are expressed as % of MTT reduction compared to untreated control conditions. The IC50 values were calculated using the GraphPad Prism 8.0.2 software (San Diego, CA, USA).

Data set [3] has as its system T24 (Urinary bladder cancer cells). Kind of data set: MTT cell survival assay, T24 urinary bladder cancer cells. In kind it is cell-based. The following applies: Homo sapiens; MTT test; cells incubated at 37 °C for 48 h (Table 1 footnote); mean ± SEM, n = 3. On the procedure:
as §1, §2

In data set [4] the test system is MCF-7 (mammary cancer cells). Kind of data set: MTT cell survival assay, MCF-7 mammary cancer cells. The data set is classed as cell-based. The following applies: Homo sapiens, MCF7; MTT test; cells incubated at 37 °C for 48 h (Table 1 footnote); mean ± SEM, n = 3. On the procedure: as §1, §2
For data set [5], the system named is HEK-293 cells/tumour cells. Kind of data set: Mean selective index, HEK-293 vs tumour cells. The data set is classed as cell-based, human. The following applies: MSI = IC50 values HEK-293 cells/IC50 values tumour cells. How it is done: as §3
In data set [6] the test system is DU-145 (prostate cancer cells). In words: MTT cell survival assay, DU-145 prostate cancer cells. The data set is classed as cell-based. The following applies: Homo sapiens, MTT test, cells incubated at 37 °C for 48 h (Table 1 footnote), mean ± SEM, n = 3. How it is done: as §1, §2
Data set [7] is described as follows: Half-wave potentials by cyclic voltammetry. The following applies: for −E^I½ (mV): acetonitrile, platinum electrode, room temperature, negative of the potential; for half-wave potential: signed value. The data set is classed as physicochemical. On the procedure: Calculation of lipophilicity (ClogP) and molar refractivity (CMR) was assessed by using the ChemBioDraw Ultra 11.0 software and the obtained values are shown in Table 3. Redox potentials of 2-phenylamino-3-acyl-1,4-naphtoquinones 1–14 were measured by cyclic voltammetry at room temperature in acetonitrile as solvent using a platinum electrode and 0.1M tetraethylammonium tetrafluoroborate as the supporting electrolyte.

Turning to `CCCCCC(=O)C1=C(Nc2ccccc2)C(=O)c2ccccc2C1=O` [Compound 1, 2-(Phenylamino)-3-hexanoylnaphthalene-1,4-dione], the half-maximal inhibitory concentration (IC50) was 77.3 ± 3.66 µM in data set [1]; 60.9 to 86.7 µM in data set [2] (Homo sapiens, read-out: IC50 range over the cancer cell lines); 86.7 ± 2.52 µM in data set [3]; 62.68 ± 0.53 µM in data set [4]; 60.89 ± 0.34 µM in data set [6]. Moreover, the “MSI (mean selective index)” value in data set [5] came out at 1.1. Besides, in data set [7], the “−E^I½ (mV)” value is given as 475 mV.

Consider `CCCCCCCCCC(=O)C1=C(Nc2ccccc2)C(=O)c2ccccc2C1=O` [Compound 2, 2-(Phenylamino)-3-decanoylnaphthalene-1,4-dione], for which the IC50 in data set [1] is 79.8 ± 9.74 µM; in data set [3], over 100 µM; in data set [4], over 100 µM; in data set [6], over 100 µM. The “IC50 range over the cancer cell lines” value in data set [2] was “almost devoid of activity”. Further, in data set [5], the “MSI (mean selective index)” value was under 0.8. Further, the “−E^I½ (mV)” value in data set [7] is listed as 480 mV.

Turning to `CCCCCCCCCCCC(=O)C1=C(Nc2ccccc2)C(=O)c2ccccc2C1=O` [Compound 3, 2-(Phenylamino)-3-dodecanoylnaphthalene-1,4-dione], the IC50 in data set [1], in data set [3], in data set [4] and in data set [6] was over 100 µM throughout. Moreover, in data set [2], the “IC50 range over the cancer cell lines” value is listed as “almost devoid of activity”. In addition, in data set [5], the “MSI (mean selective index)” value was found to be 1.0. In addition, the “−E^I½ (mV)” value in data set [7] came to 484 mV.

Consider `COc1cccc(C(=O)C2=C(Nc3ccccc3)C(=O)c3ccccc3C2=O)c1` [Compound 5, 2-(Phenylamino)-3-(3-methoxybenzoyl)naphthalene-1,4-dione], for which the IC50 in data set [1] worked out at 30.8 ± 4.07 µM; in data set [3], 12 ± 0.37 µM; in data set [4], 6.63 ± 0.13 µM; in data set [6], 10.2 ± 0.95 µM. Besides, the “MSI (mean selective index)” value in data set [5] is recorded as 3.2. Further, the “−E^I½ (mV)” value in data set [7] was 500 mV.

As to `COc1ccc(C(=O)C2=C(Nc3ccccc3)C(=O)c3ccccc3C2=O)cc1` [Compound 6, 2-(Phenylamino)-3-(4-methoxybenzoyl)naphthalene-1,4-dione], the IC50 in data set [1] amounted to 38.9 ± 3.3 µM; in data set [3], 13.3 ± 0.44 µM; in data set [4] it was 11.8 ± 0.54 µM; in data set [6] it was 19.5 ± 0.95 µM. Further, in data set [5], the “MSI (mean selective index)” value worked out at 2.6. Moreover, the “−E^I½ (mV)” value in data set [7] is 800 mV.

For the compound `COc1ccc(C(=O)C2=C(Nc3ccccc3)C(=O)c3ccccc3C2=O)cc1OC` [Compound 7, 2-(Phenylamino)-3-(3,4-dimethoxybenzoyl)naphthalene-1,4-dione], the IC50 in data set [1] is 79.9 ± 10.4 µM; in data set [3], 15.2 ± 0.88 µM; in data set [4] it was 10.6 ± 0.27 µM; in data set [6], 11.9 ± 0.22 µM. The “MSI (mean selective index)” value in data set [5] turned out to be 6.4. Further, in data set [7], the “−E^I½ (mV)” value is recorded as 604 mV.

In the case of `COc1cc(C(=O)C2=C(Nc3ccccc3)C(=O)c3ccccc3C2=O)cc(OC)c1OC` [Compound 8, 2-(Phenylamino)-3-(3,4,5-trimethoxybenzoyl)naphthalene-1,4-dione], the IC50 stood at 37.4 ± 1.7 µM in data set [1], 7.14 ± 0.2 µM in data set [3], 4.88 ± 0.52 µM in data set [4] and 11.7 ± 0.29 µM in data set [6]. The “MSI (mean selective index)” value in data set [5] stood at 4.7. The “−E^I½ (mV)” value in data set [7] is reported as 690 mV.

For `COc1cc(C(=O)C2=C(Nc3ccccc3)C(=O)c3ccccc3C2=O)ccc1O` [Compound 9, 2-(Phenylamino)-3-(4-hydroxy-3-methoxybenzoyl)naphthalene-1,4-dione], the IC50 in data set [1] was 47.7 ± 3.29 µM; in data set [3], 13.8 ± 1.87 µM; in data set [4], 5.81 ± 0.71 µM; in data set [6], 12.5 ± 0.55 µM. In addition, the “MSI (mean selective index)” value in data set [5] amounted to 4.5. Besides, the “−E^I½ (mV)” value in data set [7] stood at 595 mV.

Take `Cc1ccc(C(=O)C2=C(Nc3ccccc3)C(=O)c3ccccc3C2=O)cc1` [Compound 10, 2-(Phenylamino)-3-(4-methylbenzoyl)naphthalene-1,4-dione]: the IC50 is 78.8 ± 5.53 µM in data set [1], 21.5 ± 2.26 µM in data set [3], 14.2 ± 0.53 µM in data set [4] and 11.1 ± 0.57 µM in data set [6]. In addition, the “MSI (mean selective index)” value in data set [5] is 5.0. Besides, in data set [7], the “−E^I½ (mV)” value is 770 mV.

Consider `O=C(C1=C(Nc2ccccc2)C(=O)c2ccccc2C1=O)c1cccs1` [Compound 12], for which the IC50 in data set [1] was determined as 24.8 ± 1.41 µM; in data set [3], 11.7 ± 0.89 µM; in data set [4], 4.2 ± 0.06 µM; in data set [6] it was 6.97 ± 0.6 µM. For the same compound, the “MSI (mean selective index)” value in data set [5] was 3.3. For the same compound, the “−E^I½ (mV)” value in data set [7] came to 552 mV. Also, the half-wave potential in data set [7] was −552 mV.

Regarding `O=C(C1=C(Nc2ccccc2)C(=O)c2ccccc2C1=O)c1ccsc1` [Compound 13, 2-(Phenylamino)-3-(thiophene-3-carbonyl)naphthalene-1,4-dione], the IC50 turned out to be 20.4 ± 2.77 µM in data set [1], 13.8 ± 0.58 µM in data set [3], 6.37 ± 0.23 µM in data set [4] and 8.91 ± 0.82 µM in data set [6]. Also, in data set [5], the “MSI (mean selective index)” value worked out at 2.1. In addition, in data set [7], the “−E^I½ (mV)” value was 635 mV. The compound further yielded a half-wave potential in data set [7] of −635 mV.

Take `O=C(C1=C(Nc2ccccc2)C(=O)c2ccccc2C1=O)c1ccc[nH]1` [Compound 14, 2-(Phenylamino)-3-(1H-pyrrole-2-carbonyl)naphthalene-1,4-dione]: the IC50 in data set [1] was 13.7 ± 1.36 µM; in data set [3] it was 21.7 ± 0.22 µM; in data set [4] it was 10.7 ± 0.35 µM; in data set [6], 14.5 ± 0.25 µM. Besides, the “MSI (mean selective index)” value in data set [5] is listed as 0.9. Moreover, the “−E^I½ (mV)” value in data set [7] amounted to 685 mV. Further, in data set [7], the half-wave potential is on record as −685 mV.

Take `COc1cccc2c1C(=O)c1c(O)c3c(c(O)c1C2=O)C[C@@](O)(C(=O)CO)C[C@@H]3O[C@H]1C[C@H](N)[C@H](O)[C@H](C)O1` [DOX, Doxorubicin, reference compound]: the IC50 in data set [1] is 4.27 ± 0.34 µM; in data set [3] it was 0.46 ± 0.08 µM; in data set [4], 0.33 ± 0.05 µM; in data set [6] it was 0.93 ± 0.06 µM. The “MSI (mean selective index)” value in data set [5] turned out to be 7.5.

The term IC50 denotes the concentration at which inhibition is half-maximal.

Values taken from paper PMC10254843, “Discovery of New 2-Phenylamino-3-acyl-1,4-naphthoquinones as Inhibitors of Cancer Cells Proliferation: Searching for Intra-Cellular Targets Playing a Role in Cancer Cells Survival” (Molecules, 2023).
